Consider eight molecules from patent US20250059509A1, “METHOD FOR PRODUCING MACROPHAGES, DIFFERENTIATION INDUCING AGENT, DIFFERENTIATION INDUCTION KIT, METHOD FOR CULTURING MACROPHAGES, AGENT FOR PROMOTING MACROPHAGE PROPAGATION, KIT FOR PROMOTING MACROPHAGE PROLIFERATION, METHOD FOR MACROPHAGE PROLIFERATION, AND MACROPHAGES” (Kagoshima University, priority 2021, published 2025).

One assay deals with mouse bone marrow cells. The experiment in a line: Induction of differentiation of mouse bone marrow cells with each test substance, viable cells by WST-8 assay. The format is cell-based. The settings on record: plate coated with 1 μg test substance per well; WST-8 on Days 5, 10, 14 and 20; FIG. 10. The procedure:
To fresh 10% FBS/RPMI medium, 1/10 volume of WST-8 (07553-15 Cell Count Reagent SF, manufactured by Nacalai Tesque Inc.) was added to prepare a medium for counting the number of viable cells. The old medium in the culture plate was removed by aspiration, and the medium for counting the number of viable cells was dispensed at 100 μl/well. The cells were cultured at 37° C. in a 5% CO2 incubator for 1 hour. The absorbance at 450 nm was measured using a microplate reader.
A 96-well cell culture plate was coated with each test substance in the same manner as described above, and mouse bone marrow cells were plated in the plate at 4×10^4 cells/100 μl/well.
A general note: Formazan colour is commonly taken as a measure of viable cells.

The subject of the next assay is TREM2. As to the kind of experiment: Ligand activity using TREM2 reporter cells (GFP-positive cells by flow cytometry). The settings on record: plate coated with 1 μg test substance per well; reporter cells cultured 16 hours; FIG. 9.
For the next assay, the system named is LIMs and BMDMs. The experiment in a line: Cryopreservation test of LIMs and BMDMs. It counts as cell-based, mouse. The settings on record: −80° C. for thirty days; 25 ng/ml M-CSF; viable cells Day 6 or Day 14; FIG. 6. The protocol:
LIMs and BMDMs at 80 to 90% confluence were detached from culture plates, and separately centrifuged at 500 G for 5 minutes, followed by discarding the supernatant. In a CELLBANKER 1 (manufactured by Nippon Zenyaku Kogyo Co., Ltd.), the cells were suspended at 5×10^5 to 5×10^6 cells per 1 ml, and the resulting suspension was transferred to a CryoTube, and stored at −80° C. Thirty days later, the cells were thawed, and plated in a 24-well plate without stimulation (None), with addition of 25 ng/ml M-CSF (M-CSF), or with brain lipid coating (BL). The number of viable cells on Day 6 or Day 14 after the plating was counted using a hemocytometer.

Method for TREM2: Using a retroviral vector, TREM2 and DAP12 cDNAs were introduced into 2B4-NFAT-GFP reporter cells (obtained from RIKEN), to prepare reporter cells in which binding of a ligand to TREM2 expressed on the cell surface induces expression of GFP (Iizasa and others, Nature Communications, 2021, vol. 12 (1), p. 2299-16).
As a test substance, β-GluCer, α-GalCer, palmitic acid, stearic acid, cholesterol, PC, LPC, PE, Sulf, or MA was diluted with methanol to 50 μg/ml. The test substance was aliquoted in 20-μl (1-μg) portions into a 96-well cell culture plate, and then the plate was left to stand in a clean bench, to evaporate the methanol.
In the culture plate coated with the test substance, the reporter cells were plated at 5×10^4 cells/100 μl/well. The cells were cultured in a CO2 incubator for 16 hours. The culture was suspended well, and transferred to a V-bottom 96-well plate. The sample was centrifuged at 500 G at 4° C. for 5 minutes, and then the supernatant was discarded. The sample was suspended by adding 50 μl/well of 10 μg/ml PI/1% FBS/HBSS. GFP-positive cells in the sample were analyzed by flow cytometry.

Regarding `CCCCCCCCCCCCCCCCCCCCCCCCCC(=O)N[C@@H](CO[C@H]1O[C@H](CO)[C@H](O)[C@H](O)[C@H]1O)[C@H](O)[C@H](O)CCCCCCCCCCCCCC` [α-GalCer, α-galactosylceramide], the “differentiation of bone marrow cells into LIMs” value (from here on “differentiation”) in the assay with mouse bone marrow cells is recorded as “induced differentiation of the bone marrow cells into LIMs”. In the assay with TREM2, the “ligand activity for TREM2” value is on record as “have ligand activity for TREM2”. For lysophosphatidylcholine [LPC] the same measures were “induced differentiation of the bone marrow cells into LIMs” and “have ligand activity for TREM2”. Take mycolic acid [MA]: in the assay with mouse bone marrow cells, the “differentiation” value was “induced differentiation of the bone marrow cells into LIMs”. In addition, the “ligand activity for TREM2” value in the assay on TREM2 is “have ligand activity for TREM2”. As for phosphatidylcholine [PC], the “differentiation” value in the assay on mouse bone marrow cells is given as “induced differentiation of the bone marrow cells into LIMs”. The “ligand activity for TREM2” value in the assay on TREM2 is “have ligand activity for TREM2”. For phosphatidylethanolamine [PE] the same measures were “induced differentiation of the bone marrow cells into LIMs” and “have ligand activity for TREM2”. sulfatide: the “differentiation” value in the assay on mouse bone marrow cells is listed as “induced differentiation of the bone marrow cells into LIMs”. For the same molecule, the “ligand activity for TREM2” value in the assay with TREM2 is recorded as “have ligand activity for TREM2”. For β-glucosylceramide [β-GluCer] the same measures were “induced differentiation of the bone marrow cells into LIMs” and “have ligand activity for TREM2”.

B1: macrophage colony-stimulating factor (protein, UniProt P07141 33-552, looked up)
Macrophage colony-stimulating …: KEVSEHCSHMIGNGHLKVLQQLIDSQMETSCQIAFEFVDQEQLDDPVCYLKKAFFLVQDIIDETMRFKDNTPNANATERLQELSNNLNSCFTKDYEEQNKACVRTFHETPLQLLEKIKNFFNETKNLLEKDWNIFTKNCNNSFAKCSSRDVVTKPDCNCLYPKATPSSDPASASPHQPPAPSMAPLAGLAWDDSQRTEGSSLLPSELPLRIEDPGSAKQRPPRSTCQTLESTEQPNHGDRLTEDSQPHPSAGGPVPGVEDILESSLGTNWVLEEASGEASEGFLTQEAKFSPSTPVGGSIQAETDRPRALSASPFPKSTEDQKPVDITDRPLTEVNPMRPIGQTQNNTPEKTDGTSTLREDHQEPGSPHIATPNPQRVSNSATPVAQLLLPKSHSWGIVLPLGELEGKRSTRDRRSPAELEGGSASEGAARPVARFNSIPLTDTGHVEQHEGSSDPQIPESVFHLLVPGIILVLLTVGGLLFYKWKWRSHRDPQTLDSSVGRPEDSSLTQDEDRQVELPV
As to B1, the “proliferation of BMDMs thawed after cryopreservation” value with LIMs and BMDMs is reported as “did not proliferate”.
